ChEMBL document CHEMBL3045368, “Design, synthesis, and biological activities of novel 2-cyanoacrylates containing oxazole, oxadiazole, or quinoline moieties” (2009)

Key:
Format in all cases: functional
Amaranthus retroflexus [1] = experiment: Herbicidal activity against Amaranthus retroflexus assessed as inhibition of herb growth at 1.5 kg/ha during postemergence treatment protocol; settings: post-emergence, read-out: GI
Amaranthus retroflexus [2] = experiment: Herbicidal activity against Amaranthus retroflexus assessed as inhibition of herb growth at 1.5 kg/ha during preemergence treatment protocol; settings: pre-emergence, read-out: GI
Brassica napus [3] = experiment: Herbicidal activity against Brassica napus (oilseed rape) assessed as inhibition of herb growth at 1.5 kg/ha during postemergence treatment protocol; settings: post-emergence, read-out: GI
Digitaria sanguinalis [4] = experiment: Herbicidal activity against hairy Digitaria sanguinalis (hairy crabgrass) assessed as inhibition of herb growth at 1.5 kg/ha during postemergence treatment protocol; settings: post-emergence, read-out: GI
Medicago sativa [5] = experiment: Herbicidal activity against Medicago sativa (alfalfa) assessed as inhibition of herb growth at 1.5 kg/ha during preemergence treatment protocol; settings: pre-emergence, read-out: GI
Medicago sativa [6] = experiment: Herbicidal activity against Medicago sativa (alfalfa) assessed as inhibition of herb growth at 1.5 kg/ha during postemergence treatment protocol; settings: post-emergence, read-out: GI
Cucumis sativus = experiment: Plant growth regulatory activity in Cucumis sativus (cucumber) seeds assessed as stimulation of radicle growth level at 10 mg/mL
Brassica napus [7] = experiment: Herbicidal activity against Brassica napus (oilseed rape) assessed as inhibition of herb growth at 1.5 kg/ha during preemergence treatment protocol; settings: pre-emergence, read-out: GI
Digitaria sanguinalis [8] = experiment: Herbicidal activity against hairy Digitaria sanguinalis (hairy crabgrass) assessed as inhibition of herb growth at 1.5 kg/ha during preemergence treatment protocol; settings: pre-emergence, read-out: GI

Row | SMILES | inhibition of growth at 1500 g/ha (Amaranthus retroflexus [1]) | inhibition of growth at 1500 g/ha (Amaranthus retroflexus [2]) | inhibition of growth at 1500 g/ha (Brassica napus [3]) | inhibition of growth at 1500 g/ha (Digitaria sanguinalis [4]) | inhibition of growth at 1500 g/ha (Medicago sativa [5]) | inhibition of growth at 1500 g/ha (Medicago sativa [6]) | Activity (Cucumis sativus) | inhibition of growth at 1500 g/ha (Brassica napus [7]) | inhibition of growth at 1500 g/ha (Digitaria sanguinalis [8])
1 | CCOCCOC(=O)/C(C#N)=C(\NCc1ccc2ccccc2n1)C(C)C | 77.8% | 0% | 72% | 50.6% | 0% | 0% | 115% | 0% | 0%
2 | CCOCCOC(=O)/C(C#N)=C(\NCc1ccc2ncccc2c1)SC | 100% | 0% | 100% | 66.2% | 0% | 0% | 145% | 10% | 10%
3 | CCOCCOC(=O)/C(C#N)=C(\NCc1ccc2ncccc2c1)C(C)C | 0% | 0% | 73.7% | 0% | 0% | 10% | 85% | 0% | 0%
4 | CCOCCOC(=O)/C(C#N)=C(\NCc1cnc2ccccc2c1)C(C)C | 100% | 41.9% | 100% | 45.5% | 0% | 0% | 85% | 18.2% | 0%
5 | CCOCCOC(=O)/C(C#N)=C(\NCc1cnc2ccccc2c1)SC | 100% | 35.5% | 100% | 48.1% | 10% | 67.8% | 110% | 74.9% | 0%
6 | CCOCCOC(=O)/C(C#N)=C(\NCc1coc(-c2ccccc2)n1)SC | 0% | 5% | 34.7% | 0% | 5% | 0% | 50% | 5% | 0%
7 | CCOCCOC(=O)/C(C#N)=C(\NCc1coc(-c2ccccc2)n1)C(C)C | 71.4% | 10% | 87.3% | 87% | 0% | 0% | 60% | 0% | 5%
8 | CCOCCOC(=O)/C(C#N)=C(\NCc1coc(-c2cccc(Cl)c2)n1)SC | 0% | 0% | 25.4% | 6.5% | 10% | 0% | 80% | 0% | 0%
9 | CCOCCOC(=O)/C(C#N)=C(\NCc1coc(-c2cccc(Cl)c2)n1)C(C)C | 84.1% | 0% | 80.5% | 0% | 5% | 0% |  | 15% | 0%
10 | CCOCCOC(=O)/C(C#N)=C(\NCc1ncc(C)o1)SC | 100% | 43.9% | 10% | 10% | 0% | 0% |  | 0% | 0%
11 | CCOCCOC(=O)/C(C#N)=C(\NCc1ncc(C(C)C)o1)SC | 26.8% | 5% | 5% | 0% | 0% | 0% | 63.7% | 10% | 0%
12 | CCOCCOC(=O)/C(C#N)=C(\NCc1ncc(C(C)C)o1)C(C)C | 80.5% | 0% | 100% | 10% | 0% | 15% | 98.2% | 52.7% | 0%
13 | CCOCCOC(=O)/C(C#N)=C(\NCc1nc(-c2ccc(C(F)(F)F)cc2)no1)SC | 0% | 0% | 100% | 37.5% | 0% | 0% |  | 0% | 0%
14 | CCOCCOC(=O)/C(C#N)=C(\NCc1nc(-c2ccc(C(F)(F)F)cc2)no1)C(C)C | 100% | 50.3% | 100% | 57.5% | 0% | 43.2% |  | 48.4% | 10%
15 | CCOCCOC(=O)/C(C#N)=C(\NCc1nc(-c2ccc(F)cc2)no1)SC | 0% | 0% | 15% | 10% | 0% | 0% |  | 10% | 0%
16 | CCOCCOC(=O)/C(C#N)=C(\NCc1nc(-c2ccc(F)cc2)no1)C(C)C | 100% | 0% | 100% | 82.5% | 0% | 10% |  | 88% | 0%
17 | CCOCCOC(=O)/C(C#N)=C(/CC)NCc1nc(-c2ccc(F)cc2)no1 | 0% | 0% | 0% | 0% | 0% | 0% |  | 15% | 0%
18 | CCOCCOC(=O)/C(C#N)=C(\NCc1ccc2ccccc2n1)SC | 0% | 0% | 35.6% | 0% | 0% | 15% | 60% | 0% | 0%
19 | CCOCCOC(=O)/C(C#N)=C(/CC)NCc1ccc2ccccc2n1 | 0% | 20% | 8.5% | 0% | 0% | 0% | 95.4% | 0% | 0%
